{
  "source": "patent US4330529A",
  "about": "“Antibacterial composition” (Fujisawa Pharmaceutical Co., Ltd., priority 1979, dated 1982)",
  "key": {"Citrobacter freundii 35": {"tested_on": "Citrobacter freundii 35", "test": "MIC and FIC, Nutrient agar (Tests 6, 7, 9)", "type": "cell-based"}, "[1]": {"tested_on": "Pseudomonas aeruginosa No.15", "test": "MIC and FIC, Nutrient agar, multiple inoculator (Test 4)", "type": "cell-based", "conditions": "P. aeruginosa No.15, 10^8 cells/ml, 20 h", "protocol": "(§1) After the incubation was carried out at 37° C. for 20 hours, MIC values were determined.\n(§2) FIC values and FIC Index were calculated in substantially the same manner as described in Test 1."}, "Serratia marcescens 27": {"tested_on": "Serratia marcescens 27", "test": "MIC and FIC, Nutrient agar (Test 7)", "type": "cell-based", "conditions": "S. marcescens 27, 18 h", "protocol": "as §2"}, "[2]": {"tested_on": "Klebsiella pneumoniae NCTC 418", "test": "MIC and FIC, Nutrient agar (Tests 2, 3)", "type": "cell-based", "conditions": "NCTC418, K. pneumoniae NCTC 418, 20 h", "protocol": "as §1"}, "Proteus vulgaris 7": {"tested_on": "Proteus vulgaris 7", "test": "MIC and FIC, Nutrient agar (Tests 7, 9)", "type": "cell-based", "conditions": "P. vulgaris 7"}, "Enterobacter aerogenes 7": {"tested_on": "Enterobacter aerogenes 7", "test": "MIC and FIC, Nutrient agar (Tests 6, 7, 9)", "type": "cell-based", "conditions": "Klebsiella aerogenes; E. aerogenes 7; 18 h; read-out: MIC", "protocol": "as §2"}, "[3]": {"tested_on": "Pseudomonas aeruginosa No.13", "test": "MIC and FIC, Nutrient agar, multiple inoculator (Test 5)", "type": "cell-based", "conditions": "Pseudomonas aeruginosa; P. aeruginosa No.13; 10^8 cells/ml, 20 h; read-out: MIC", "protocol": "as §1, §2"}, "[4]": {"tested_on": "Enterobacter cloacae 1401-4", "test": "MIC and FIC, Nutrient agar (Tests 2, 3)", "type": "cell-based", "conditions": "E. cloacae 1401-4"}, "[5]": {"tested_on": "Proteus vulgaris IAM-1025", "test": "MIC and FIC, Nutrient agar (Test 2)", "type": "cell-based", "conditions": "IAM1025, P. vulgaris IAM-1025, 20 h", "protocol": "as §1, §2"}, "[6]": {"tested_on": "Pseudomonas aeruginosa 77", "test": "MIC and FIC, Nutrient agar (Test 7)", "type": "cell-based", "conditions": "P. aeruginosa 77, 18 h", "protocol": "as §2"}, "Proteus morganii 1433-2": {"tested_on": "Proteus morganii 1433-2", "test": "MIC and FIC, Nutrient agar (Tests 2, 3)", "type": "cell-based", "conditions": "Morganella morganii, 14332; P. morganii 1433-2; 20 h", "protocol": "as §1"}, "[7]": {"tested_on": "Shigella flexneri Ia EW-8", "test": "MIC and FIC, Nutrient agar (Test 2)", "type": "cell-based", "conditions": "IAEW8, S. flexneri Ia EW-8, 20 h", "protocol": "as §1"}, "[8]": {"tested_on": "Salmonella typhimurium 1406", "test": "MIC and FIC, Nutrient agar (Tests 2, 3)", "type": "cell-based", "conditions": "Salmonella enterica, TYPHIMURIUM, 20 h"}, "[9]": {"tested_on": "Salmonella paratyphi A-1015", "test": "MIC and FIC, Nutrient agar (Test 2)", "type": "cell-based", "conditions": "Salmonella enterica; S. paratyphi A-1015; 20 h", "protocol": "as §1, §2"}, "[10]": {"tested_on": "Pseudomonas aeruginosa No.5", "test": "MIC and FIC, Nutrient agar, multiple inoculator (Tests 4, 5)", "type": "cell-based", "conditions": "Pseudomonas aeruginosa; P. aeruginosa No.5; 10^8 cells/ml, 20 h; read-out: MIC", "protocol": "as §1"}, "[11]": {"tested_on": "Pseudomonas aeruginosa No.18", "test": "MIC and FIC, Nutrient agar, multiple inoculator (Test 5)", "type": "cell-based", "conditions": "Pseudomonas aeruginosa; P. aeruginosa No.18; 10^8 cells/ml, 20 h; read-out: MIC", "protocol": "as §1, §2"}, "[12]": {"tested_on": "Proteus mirabilis 1432-75", "test": "MIC and FIC, Nutrient agar (Tests 2, 3)", "type": "cell-based", "conditions": "Proteus mirabilis, 143275, 20 h"}, "[13]": {"tested_on": "Salmonella enteritidis 1891", "test": "MIC and FIC, Nutrient agar (Test 2)", "type": "cell-based", "conditions": "Salmonella enterica; S. enteritidis 1891; 20 h", "protocol": "as §1"}, "[14]": {"tested_on": "Pseudomonas aeruginosa No.11", "test": "MIC and FIC, Nutrient agar, multiple inoculator (Test 5)", "type": "cell-based", "conditions": "Pseudomonas aeruginosa; P. aeruginosa No.11; 10^8 cells/ml, 20 h; read-out: MIC", "protocol": "as §1, §2"}, "[15]": {"tested_on": "Enterobacter aerogenes 25", "test": "microbe, parasite or virus in culture", "conditions": "Klebsiella aerogenes, 25, 18 h"}, "Staphylococcus aureus 2": {"tested_on": "Staphylococcus aureus 2", "test": "MIC and FIC, Nutrient agar (Test 7)", "type": "cell-based", "conditions": "S. aureus 2, 18 h", "protocol": "as §2"}, "Proteus vulgaris 22": {"tested_on": "Proteus vulgaris 22", "test": "MIC and FIC, Nutrient agar (Test 9)", "type": "cell-based", "conditions": "P. vulgaris 22, 18 h", "protocol": "as §2"}, "[16]": {"tested_on": "Pseudomonas aeruginosa No.9", "test": "MIC and FIC, Nutrient agar, multiple inoculator (Test 4)", "type": "cell-based", "conditions": "P. aeruginosa No.9, 10^8 cells/ml, 20 h", "protocol": "as §1, §2"}, "[17]": {"tested_on": "Pseudomonas aeruginosa 1101-76", "test": "MIC and FIC, Nutrient agar (Test 3)", "type": "cell-based", "conditions": "Pseudomonas aeruginosa, 110176, 20 h"}, "Escherichia coli No.14": {"tested_on": "Escherichia coli No.14", "test": "MIC and FIC, Nutrient agar, multiple inoculator (Test 4)", "type": "cell-based", "conditions": "E. coli No.14, 10^8 cells/ml, 20 h", "protocol": "as §1"}, "Citrobacter freundii 63": {"tested_on": "Citrobacter freundii 63", "test": "MIC and FIC, Nutrient agar (Test 9)", "type": "cell-based", "conditions": "C. freundii 63, 18 h", "protocol": "as §2"}, "[18]": {"tested_on": "Enterobacter aerogenes 1402-10", "test": "MIC and FIC, Nutrient agar (Tests 2, 3)", "type": "cell-based", "conditions": "Klebsiella aerogenes, 140210, 20 h"}, "[19]": {"tested_on": "Staphylococcus epidermidis 1601-1", "test": "MIC and FIC, Nutrient agar (Tests 2, 3)", "type": "cell-based", "conditions": "16011, S. epidermidis 1601-1, 20 h", "protocol": "as §1"}, "[20]": {"tested_on": "Pseudomonas aeruginosa 42", "test": "MIC and FIC, Nutrient agar (Test 7)", "type": "cell-based", "conditions": "Pseudomonas aeruginosa; P. aeruginosa 42; 18 h; read-out: MIC", "protocol": "as §2"}, "Escherichia coli 99": {"tested_on": "Escherichia coli 99", "test": "MIC and FIC, Nutrient agar (Test 6)", "conditions": "Escherichia coli, 99, 18 h", "protocol": "as §2"}, "Klebsiella pneumoniae 8": {"tested_on": "Klebsiella pneumoniae 8", "test": "Isobologram, growth in Nutrient broth in various combination ratios (Test 8)", "type": "cell-based", "design": "key: +: the test microorganism grew; -: the test microorganism did not grow", "conditions": "gentamicin sulfate 0", "protocol": "After the incubation was carried out at 37° C. for 18 hours, the growth of the test organism was observed."}, "Staphylococcus aureus 1": {"tested_on": "Staphylococcus aureus 1", "test": "MIC and FIC, Nutrient agar (Test 7)", "type": "cell-based", "conditions": "S. aureus 1, 18 h", "protocol": "as §2"}, "Proteus vulgaris 5": {"tested_on": "Proteus vulgaris 5", "test": "MIC and FIC, Nutrient agar (Test 6)", "type": "cell-based", "conditions": "Proteus vulgaris; P. vulgaris 5; 18 h; read-out: MIC", "protocol": "as §2"}, "Serratia marcescens 4": {"tested_on": "Serratia marcescens 4", "test": "MIC and FIC, Nutrient agar (Test 9)", "type": "cell-based", "conditions": "S. marcescens 4, 18 h", "protocol": "as §2"}, "[21]": {"tested_on": "Pseudomonas aeruginosa No.12", "test": "MIC and FIC, Nutrient agar, multiple inoculator (Test 5)", "type": "cell-based", "conditions": "Pseudomonas aeruginosa; P. aeruginosa No.12; 10^8 cells/ml, 20 h; read-out: MIC", "protocol": "as §1, §2"}, "[22]": {"tested_on": "Serratia marcescens 1421-4", "test": "MIC and FIC, Nutrient agar (Tests 2, 3)", "type": "cell-based", "conditions": "Serratia marcescens, 14214, 20 h"}},
  "data": [
    {"smiles": "O=CN(O)CCCP(=O)(O)O", "note": "[A (Table 2)]", "values": [
      {"measurement": "MIC", "setting": "Citrobacter freundii 35; C. freundii 35, 18 h, listed as A (Table 9)", "result": 100, "unit": "µg/mL"},
      {"measurement": "MIC", "setting": "Citrobacter freundii 35; C. freundii 35, 18 h, listed as A (Table 10)", "result": 100, "unit": "µg/mL"},
      {"measurement": "MIC", "setting": "Citrobacter freundii 35; Citrobacter freundii, 35, 18 h", "result": 50, "unit": "µg/mL"},
      {"measurement": "MIC", "setting": "Citrobacter freundii 35; Citrobacter freundii, 35, 18 h, C. freundii 35, 18 h", "result": 100, "unit": "µg/mL"},
      {"measurement": "MIC", "setting": "[1]", "result": "> 800", "unit": "µg/mL"},
      {"measurement": "MIC", "setting": "Serratia marcescens 27", "result": 400, "unit": "µg/mL"},
      {"measurement": "MIC", "setting": "[2]", "result": 25, "unit": "µg/mL"},
      {"measurement": "MIC", "setting": "Proteus vulgaris 7; 18 h, listed as A (Table 15)", "result": 50, "unit": "µg/mL"},
      {"measurement": "MIC", "setting": "Proteus vulgaris 7; Proteus vulgaris, 7, 18 h", "result": 25, "unit": "µg/mL"},
      {"measurement": "MIC", "setting": "Enterobacter aerogenes 7", "result": 100, "unit": "µg/mL"},
      {"measurement": "MIC", "setting": "[3]", "result": 800, "unit": "µg/mL"},
      {"measurement": "MIC", "setting": "[4]; 20 h, listed as A (Table 3)", "result": 3.16, "unit": "µg/mL"},
      {"measurement": "MIC", "setting": "[4]; 20 h, listed as A (Table 4)", "result": 3.13, "unit": "µg/mL"},
      {"measurement": "MIC", "setting": "[4]; Enterobacter cloacae, 14014, 20 h", "result": 3.13, "unit": "µg/mL"},
      {"measurement": "MIC", "setting": "[5]", "result": 1.56, "unit": "µg/mL"},
      {"measurement": "MIC", "setting": "[6]", "result": 6.25, "unit": "µg/mL"},
      {"measurement": "MIC", "setting": "Proteus morganii 1433-2", "result": "≥ 400", "unit": "µg/mL"},
      {"measurement": "MIC", "setting": "[7]", "result": 1.56, "unit": "µg/mL"},
      {"measurement": "MIC", "setting": "[8]", "result": 6.25, "unit": "µg/mL"},
      {"measurement": "MIC", "setting": "[9]", "result": 6.25, "unit": "µg/mL"},
      {"measurement": "MIC", "setting": "[10]", "result": 800, "unit": "µg/mL"},
      {"measurement": "MIC", "setting": "[11]", "result": "> 800", "unit": "µg/mL"},
      {"measurement": "MIC", "setting": "[12]", "result": 1.56, "unit": "µg/mL"},
      {"measurement": "MIC", "setting": "[13]", "result": 0.78, "unit": "µg/mL"},
      {"measurement": "MIC", "setting": "[14]", "result": "> 800", "unit": "µg/mL"},
      {"measurement": "MIC", "setting": "[15]", "result": 100, "unit": "µg/mL"},
      {"measurement": "MIC", "setting": "Staphylococcus aureus 2", "result": 200, "unit": "µg/mL"},
      {"measurement": "MIC", "setting": "Proteus vulgaris 22", "result": 6.25, "unit": "µg/mL"},
      {"measurement": "MIC", "setting": "[16]", "result": "> 800", "unit": "µg/mL"},
      {"measurement": "MIC", "setting": "[17]", "result": 1.56, "unit": "µg/mL"},
      {"measurement": "MIC", "setting": "Escherichia coli No.14", "result": 25, "unit": "µg/mL"},
      {"measurement": "MIC", "setting": "Citrobacter freundii 63", "result": 50, "unit": "µg/mL"},
      {"measurement": "MIC", "setting": "[18]", "result": 6.25, "unit": "µg/mL"},
      {"measurement": "MIC", "setting": "[19]", "result": "≥ 400", "unit": "µg/mL"},
      {"measurement": "MIC", "setting": "[20]", "result": 50, "unit": "µg/mL"},
      {"measurement": "MIC", "setting": "Escherichia coli 99", "result": 25, "unit": "µg/mL"},
      {"measurement": "growth of the test organism", "setting": "Klebsiella pneumoniae 8; phosphonic acid salt 0.78 mcg/ml", "result": "+"},
      {"measurement": "growth of the test organism", "setting": "Klebsiella pneumoniae 8; phosphonic acid salt 1.56 mcg/ml", "result": "+"},
      {"measurement": "growth of the test organism", "setting": "Klebsiella pneumoniae 8; phosphonic acid salt 3.13 mcg/ml", "result": "+"},
      {"measurement": "growth of the test organism", "setting": "Klebsiella pneumoniae 8; phosphonic acid salt 6.25 mcg/ml", "result": "+"},
      {"measurement": "growth of the test organism", "setting": "Klebsiella pneumoniae 8; phosphonic acid salt 12.5 mcg/ml", "result": "+"},
      {"measurement": "growth of the test organism", "setting": "Klebsiella pneumoniae 8; phosphonic acid salt 25 mcg/ml", "result": "-"},
      {"measurement": "MIC", "setting": "Staphylococcus aureus 1", "result": 400, "unit": "µg/mL"},
      {"measurement": "MIC", "setting": "Proteus vulgaris 5", "result": 25, "unit": "µg/mL"},
      {"measurement": "MIC", "setting": "Serratia marcescens 4", "result": 50, "unit": "µg/mL"},
      {"measurement": "MIC", "setting": "[21]", "result": 800, "unit": "µg/mL"},
      {"measurement": "MIC", "setting": "[22]", "result": 50, "unit": "µg/mL"}
    ]}
  ]
}
